{"source": "patent US20070116781A1", "about": "“Hydrogen Cyanamide Pesticide Formulations” (priority 2005, published 2007)", "key": {"[1]": {"system": "combined weed species", "test": "Herbicidal activity, cyanamide and citric acid, pre-emergence, covered pots", "type": "in vivo", "settings": "C6H8O7 150 mg/kg soil", "experimental": "(§1) The weeds used in these tests were grown from a standard weed seed pack of common annual and perennial weeds representing an extreme weed situation. The weeds included crabgrass (Digitaria sanguinalis), yellow nutsedge (Cyperus esculentus), […] (Ipomoea spp.), pigweed (Amaranthus spp.), and other annual weeds. Observations of the effects on the weed population as a whole were made, and individual observations were made for crabgrass, yellow nutsedge, sicklepod, morningglory, and pigweed. Stock solutions of hydrogen cyanamide at 1.25% by weight and citric acid at 5.0% by weight, both in water, were prepared, the hydrogen cyanamide from a phosphate-buffered 50% aqueous solution. […] Data analyses were performed in the same manner as Example 1. The results expressed in weeds per pot are listed in Table XIV for all weeds, Table XV for crabgrass, Table XVI for yellow nutsedge, Table XVII for sicklepod, Table XVIII for morningglory, and Table XIX for pigweed, all at various application rates for hydrogen cyanamide, with and without citric acid."}, "[2]": {"system": "crabgrass", "test": "Herbicidal activity, cyanamide and citric acid, pre-emergence, covered pots", "type": "in vivo, Digitaria sanguinalis", "settings": "C6H8O7 150 mg/kg soil", "experimental": "as §1"}, "[3]": {"system": "yellow nutsedge", "test": "Herbicidal activity, cyanamide and citric acid, pre-emergence, covered pots", "type": "in vivo, Cyperus esculentus", "settings": "C6H8O7 150 mg/kg soil", "experimental": "as §1"}, "[4]": {"system": "sicklepod", "test": "Herbicidal activity, cyanamide and citric acid, pre-emergence, covered pots", "type": "in vivo, Senna obtusifolia", "settings": "C6H8O7 150 mg/kg soil", "experimental": "as §1"}, "[5]": {"system": "morningglory", "test": "Herbicidal activity, cyanamide and citric acid, pre-emergence, covered pots", "type": "in vivo, Ipomoea spp.", "settings": "C6H8O7 150 mg/kg soil", "experimental": "as §1"}, "[6]": {"system": "weed combination", "test": "Herbicidal activity of citric acid alone, pre-emergence, covered pots", "type": "in vivo", "experimental": "The weeds used in these tests were the same as those used in Example 4, and observations were made of the effects on individual weeds as well as the weed population as a whole.\nA stock solution of citric acid was made in the manner described in Example 4, and all other test parameters were likewise the same as in Example 4. Weed counts were taken from the various pots at intervals of 7, 12, and 28 days after application of the citric acid, and data analyses were performed in the same manner as Example 1."}}, "data": [{"smiles": "O=C(O)CC(O)(CC(=O)O)C(=O)O", "note": "[C6H8O7, 2-hydroxy-1,2,3-propanetricarboxylic acid]", "values": [{"measurement": "Weeds Per Pot (combined weed species)", "setting": "[1]; 9 d after treatment", "value": 10.6}, {"measurement": "Weeds Per Pot (combined weed species)", "setting": "[1]; 13 d after treatment", "value": 15.0}, {"measurement": "Weeds Per Pot (combined weed species)", "setting": "[1]; 19 d after treatment", "value": 16.5}, {"measurement": "Weeds Per Pot (combined weed species)", "setting": "[1]; 26 d after treatment", "value": 16.0}, {"measurement": "Weeds Per Pot: Crabgrass", "setting": "[2]; 9 d after treatment", "value": 4.6}, {"measurement": "Weeds Per Pot: Crabgrass", "setting": "[2]; 13 d after treatment", "value": 8.6}, {"measurement": "Weeds Per Pot: Crabgrass", "setting": "[2]; 19 d after treatment", "value": 9.3}, {"measurement": "Weeds Per Pot: Crabgrass", "setting": "[2]; 26 d after treatment", "value": 8.1}, {"measurement": "Weeds Per Pot: Yellow Nutsedge", "setting": "[3]; 13 d after treatment", "value": 0.7}, {"measurement": "Weeds Per Pot: Yellow Nutsedge", "setting": "[3]; 19 d after treatment", "value": 0.9}, {"measurement": "Weeds Per Pot: Yellow Nutsedge", "setting": "[3]; 26 d after treatment", "value": 0.9}, {"measurement": "Weeds Per Pot: Sicklepod", "setting": "[4]; 13 d after treatment", "value": 4.6}, {"measurement": "Weeds Per Pot: Sicklepod", "setting": "[4]; 19 d after treatment", "value": 5.6}, {"measurement": "Weeds Per Pot: Sicklepod", "setting": "[4]; 26 d after treatment", "value": 5.3}, {"measurement": "Weeds Per Pot: Morningglory", "setting": "[5]; 13 d after treatment", "value": 1.1}, {"measurement": "Weeds Per Pot: Morningglory", "setting": "[5]; 19 d after treatment", "value": 0.9}, {"measurement": "Weeds Per Pot: Morningglory", "setting": "[5]; 26 d after treatment", "value": 5.3}, {"measurement": "Weeds Per Pot (weed combination)", "setting": "[6]; 7 d after treatment, citric acid 50 mg/kg soil", "value": 16.6}, {"measurement": "Weeds Per Pot (weed combination)", "setting": "[6]; 7 d after treatment, citric acid 100 mg/kg soil", "value": 11.1}, {"measurement": "Weeds Per Pot (weed combination)", "setting": "[6]; 7 d after treatment, citric acid 150 mg/kg soil", "value": 14.0}, {"measurement": "Weeds Per Pot (weed combination)", "setting": "[6]; 7 d after treatment, citric acid 200 mg/kg soil", "value": 12.2}, {"measurement": "Weeds Per Pot (weed combination)", "setting": "[6]; 7 d after treatment, citric acid 250 mg/kg soil", "value": 11.5}, {"measurement": "Weeds Per Pot (weed combination)", "setting": "[6]; 12 d after treatment, citric acid 50 mg/kg soil", "value": 29.8}, {"measurement": "Weeds Per Pot (weed combination)", "setting": "[6]; 12 d after treatment, citric acid 100 mg/kg soil", "value": 25.5}, {"measurement": "Weeds Per Pot (weed combination)", "setting": "[6]; 12 d after treatment, citric acid 200 mg/kg soil", "value": 20.6}, {"measurement": "Weeds Per Pot (weed combination)", "setting": "[6]; 28 d after treatment, citric acid 50 mg/kg soil", "value": 28.0}, {"measurement": "Herbicidal activity of citric acid", "setting": "[6]; pre-emergence, covered pots", "value": "negligible except at extremely high application rates"}]}]}
